Data reported in the supplement of paper PMC12463676, “Small-molecule dissolution of stress granules by redox modulation benefits ALS models” (Nature Chemical Biology, 2025).

How the values were obtained:
[1] = compound: NC(=O)CCCCC1CCSS1 [lipoamide]; test: thermal stability z-score vs DMSO; higher = more thermally stabilized by treatment; settings: HeLa, lipoamide concentration 100 µM
Procedure: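 Cellular thermal proteome profiling in HeLa cells. Cells were treated with 100 µM lipoamide for 1 h, with or without 1 mM arsenate for a further 1 h, then heated to ten temperatures (37-66.3 °C), and soluble protein was quantified by TMT mass spectrometry relative to 0.1% DMSO controls. The thermal stability score (sum of log2 fold changes minus the abundance score) was transformed to a z-score; mean of n = 3 experiments.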

[2] = compound: O=[As]([O-])(O)O.[K+] [potassium arsenate]; test: as above; settings: HeLa; arsenate concentration 1 mM
Procedure: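 Cellular thermal proteome profiling in HeLa cells treated with 1 mM arsenate for 1 h (DMSO pretreatment), heated to ten temperatures (37-66.3 °C). Soluble protein was quantified by TMT mass spectrometry relative to DMSO controls; the thermal stability score was transformed to a z-score; mean of n = 3 experiments.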

[3] = arsenate co-treatment: 1 mM arsenate 1 h
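Further: each temperature applied for 3 min, abundance score taken as mean log2 fold change at the two lowest temperatures, z-score obtained by mean subtraction and division by SD.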

Sequence of UniProt Q9NTX5 (Q9NTX5 whole entry): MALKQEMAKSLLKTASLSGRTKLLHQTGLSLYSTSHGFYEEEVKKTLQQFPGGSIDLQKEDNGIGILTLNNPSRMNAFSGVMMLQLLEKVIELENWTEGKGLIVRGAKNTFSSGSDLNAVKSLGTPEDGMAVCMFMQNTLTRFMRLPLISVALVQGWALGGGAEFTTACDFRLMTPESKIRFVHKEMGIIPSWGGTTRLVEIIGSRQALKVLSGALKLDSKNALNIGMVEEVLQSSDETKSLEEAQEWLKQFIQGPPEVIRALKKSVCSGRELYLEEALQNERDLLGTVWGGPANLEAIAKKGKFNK
Sequence of UniProt Q6UX04 (Q6UX04 whole entry): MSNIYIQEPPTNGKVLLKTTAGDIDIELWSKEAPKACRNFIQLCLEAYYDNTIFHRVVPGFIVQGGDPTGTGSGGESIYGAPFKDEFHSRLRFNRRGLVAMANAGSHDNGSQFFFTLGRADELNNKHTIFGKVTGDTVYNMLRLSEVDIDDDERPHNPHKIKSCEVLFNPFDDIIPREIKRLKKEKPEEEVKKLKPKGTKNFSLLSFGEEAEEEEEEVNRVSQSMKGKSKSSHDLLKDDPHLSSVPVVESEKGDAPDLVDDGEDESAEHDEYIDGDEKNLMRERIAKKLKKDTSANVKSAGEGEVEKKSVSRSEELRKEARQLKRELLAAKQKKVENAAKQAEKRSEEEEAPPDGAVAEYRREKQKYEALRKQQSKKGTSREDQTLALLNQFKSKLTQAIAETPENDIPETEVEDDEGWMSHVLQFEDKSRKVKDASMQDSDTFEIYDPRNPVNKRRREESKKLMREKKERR
Sequence of UniProt Q15758 (Q15758 whole entry): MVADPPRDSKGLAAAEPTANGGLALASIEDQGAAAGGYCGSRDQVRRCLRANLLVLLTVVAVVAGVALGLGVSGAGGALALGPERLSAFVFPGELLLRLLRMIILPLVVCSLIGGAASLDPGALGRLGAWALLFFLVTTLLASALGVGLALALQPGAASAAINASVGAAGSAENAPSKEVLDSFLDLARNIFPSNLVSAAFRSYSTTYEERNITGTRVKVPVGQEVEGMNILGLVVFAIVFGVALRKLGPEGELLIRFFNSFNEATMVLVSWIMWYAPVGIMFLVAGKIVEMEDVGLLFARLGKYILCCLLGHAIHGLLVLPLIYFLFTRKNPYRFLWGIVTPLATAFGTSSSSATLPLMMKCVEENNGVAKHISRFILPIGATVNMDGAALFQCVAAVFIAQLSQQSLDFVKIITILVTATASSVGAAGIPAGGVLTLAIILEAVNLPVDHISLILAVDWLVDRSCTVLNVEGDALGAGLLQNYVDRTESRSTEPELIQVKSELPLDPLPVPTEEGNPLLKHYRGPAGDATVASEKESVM
Sequence of UniProt Q99538 (Q99538 whole entry): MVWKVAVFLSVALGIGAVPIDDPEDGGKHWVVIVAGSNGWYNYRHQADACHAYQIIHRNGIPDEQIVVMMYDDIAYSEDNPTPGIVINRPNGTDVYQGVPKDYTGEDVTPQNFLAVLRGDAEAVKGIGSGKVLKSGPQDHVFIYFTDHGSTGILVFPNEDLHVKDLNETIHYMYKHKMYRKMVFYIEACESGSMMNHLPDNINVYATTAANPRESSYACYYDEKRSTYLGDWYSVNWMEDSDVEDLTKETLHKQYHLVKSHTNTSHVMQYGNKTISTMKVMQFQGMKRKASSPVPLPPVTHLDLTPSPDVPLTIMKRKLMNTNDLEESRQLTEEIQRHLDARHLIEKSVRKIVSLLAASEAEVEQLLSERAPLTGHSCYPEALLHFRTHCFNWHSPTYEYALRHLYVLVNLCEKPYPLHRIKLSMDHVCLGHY
Sequence of UniProt O95400 (O95400 whole entry): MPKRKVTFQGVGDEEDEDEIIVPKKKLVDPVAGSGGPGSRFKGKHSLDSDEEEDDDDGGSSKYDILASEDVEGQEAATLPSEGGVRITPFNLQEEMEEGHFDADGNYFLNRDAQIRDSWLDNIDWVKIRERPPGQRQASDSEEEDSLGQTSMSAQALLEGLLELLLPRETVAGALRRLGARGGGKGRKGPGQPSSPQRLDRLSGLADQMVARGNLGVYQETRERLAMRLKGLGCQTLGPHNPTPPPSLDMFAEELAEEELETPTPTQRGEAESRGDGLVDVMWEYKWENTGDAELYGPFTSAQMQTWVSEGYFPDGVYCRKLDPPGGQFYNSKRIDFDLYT
Sequence of UniProt O95900 (O95900 whole entry): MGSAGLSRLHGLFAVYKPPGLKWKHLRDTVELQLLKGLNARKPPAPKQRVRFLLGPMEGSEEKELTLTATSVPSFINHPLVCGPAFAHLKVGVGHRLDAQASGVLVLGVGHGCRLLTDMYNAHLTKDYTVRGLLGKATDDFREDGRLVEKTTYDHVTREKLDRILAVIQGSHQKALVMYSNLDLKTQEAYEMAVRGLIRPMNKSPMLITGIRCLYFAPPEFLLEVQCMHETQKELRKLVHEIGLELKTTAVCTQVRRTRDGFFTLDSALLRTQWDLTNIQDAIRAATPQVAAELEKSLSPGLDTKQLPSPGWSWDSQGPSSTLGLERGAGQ
Sequence of UniProt Q9Y2L9 (Q9Y2L9 whole entry): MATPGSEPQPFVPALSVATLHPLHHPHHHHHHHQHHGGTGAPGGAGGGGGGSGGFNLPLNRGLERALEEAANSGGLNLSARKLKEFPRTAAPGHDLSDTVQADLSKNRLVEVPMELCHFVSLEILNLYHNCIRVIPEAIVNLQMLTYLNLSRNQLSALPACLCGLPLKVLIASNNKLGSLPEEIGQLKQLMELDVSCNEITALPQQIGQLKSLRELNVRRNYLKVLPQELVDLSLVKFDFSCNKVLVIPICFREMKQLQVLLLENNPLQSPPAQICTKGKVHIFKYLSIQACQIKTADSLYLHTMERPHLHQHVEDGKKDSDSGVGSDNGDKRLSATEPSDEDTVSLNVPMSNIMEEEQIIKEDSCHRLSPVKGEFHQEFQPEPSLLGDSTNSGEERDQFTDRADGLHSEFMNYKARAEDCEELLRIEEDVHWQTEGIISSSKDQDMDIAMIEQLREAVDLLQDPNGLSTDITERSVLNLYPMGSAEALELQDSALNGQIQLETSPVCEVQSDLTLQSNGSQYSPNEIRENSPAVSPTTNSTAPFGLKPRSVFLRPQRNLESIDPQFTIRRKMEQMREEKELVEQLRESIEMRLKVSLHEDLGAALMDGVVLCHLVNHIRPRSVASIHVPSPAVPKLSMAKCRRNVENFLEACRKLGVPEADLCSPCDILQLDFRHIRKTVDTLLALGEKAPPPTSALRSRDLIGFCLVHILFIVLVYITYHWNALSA
Sequence of UniProt Q9P215 (Q9P215 whole entry): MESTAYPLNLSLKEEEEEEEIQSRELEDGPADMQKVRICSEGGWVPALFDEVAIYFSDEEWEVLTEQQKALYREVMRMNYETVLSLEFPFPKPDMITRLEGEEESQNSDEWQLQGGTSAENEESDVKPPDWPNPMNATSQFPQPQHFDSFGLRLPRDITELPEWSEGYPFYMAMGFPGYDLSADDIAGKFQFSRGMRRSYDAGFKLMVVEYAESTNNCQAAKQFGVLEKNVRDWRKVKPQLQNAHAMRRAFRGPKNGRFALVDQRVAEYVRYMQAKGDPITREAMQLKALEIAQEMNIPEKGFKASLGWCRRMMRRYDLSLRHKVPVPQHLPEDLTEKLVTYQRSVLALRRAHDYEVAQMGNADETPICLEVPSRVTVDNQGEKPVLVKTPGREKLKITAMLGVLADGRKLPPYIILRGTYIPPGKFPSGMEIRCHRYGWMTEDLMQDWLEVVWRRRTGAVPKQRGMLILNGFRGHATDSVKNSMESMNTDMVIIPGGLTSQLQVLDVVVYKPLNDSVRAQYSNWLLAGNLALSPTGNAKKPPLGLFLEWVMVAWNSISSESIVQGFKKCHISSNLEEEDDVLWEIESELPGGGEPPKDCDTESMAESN
Sequence of UniProt P63208 (P63208 whole entry): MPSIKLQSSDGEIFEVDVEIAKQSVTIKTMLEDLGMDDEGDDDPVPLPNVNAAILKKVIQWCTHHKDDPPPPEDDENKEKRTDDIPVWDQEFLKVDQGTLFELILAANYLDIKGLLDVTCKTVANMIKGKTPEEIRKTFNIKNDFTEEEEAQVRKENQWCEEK
Sequence of UniProt P09493 (P09493 whole entry): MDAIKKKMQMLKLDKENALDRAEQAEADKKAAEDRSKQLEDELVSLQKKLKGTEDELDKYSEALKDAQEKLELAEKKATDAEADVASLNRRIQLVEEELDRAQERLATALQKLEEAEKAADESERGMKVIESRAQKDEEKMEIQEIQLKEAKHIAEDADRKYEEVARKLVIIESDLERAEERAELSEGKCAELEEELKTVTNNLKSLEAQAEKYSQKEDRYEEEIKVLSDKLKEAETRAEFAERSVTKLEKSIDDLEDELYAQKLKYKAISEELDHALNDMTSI
Sequence of UniProt P62191 (P62191 whole entry): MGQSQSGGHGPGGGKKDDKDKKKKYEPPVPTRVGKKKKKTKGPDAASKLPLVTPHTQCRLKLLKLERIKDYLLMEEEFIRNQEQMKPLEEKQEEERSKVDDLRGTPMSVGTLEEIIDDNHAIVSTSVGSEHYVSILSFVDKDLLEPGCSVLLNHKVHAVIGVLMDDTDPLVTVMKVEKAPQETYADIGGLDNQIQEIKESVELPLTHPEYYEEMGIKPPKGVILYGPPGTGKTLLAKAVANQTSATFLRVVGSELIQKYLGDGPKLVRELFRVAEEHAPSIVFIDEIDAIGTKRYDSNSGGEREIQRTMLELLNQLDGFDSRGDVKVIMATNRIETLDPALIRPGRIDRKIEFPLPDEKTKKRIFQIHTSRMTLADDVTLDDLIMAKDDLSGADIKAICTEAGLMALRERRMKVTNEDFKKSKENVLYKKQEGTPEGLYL
Sequence of UniProt P53004 (P53004 whole entry): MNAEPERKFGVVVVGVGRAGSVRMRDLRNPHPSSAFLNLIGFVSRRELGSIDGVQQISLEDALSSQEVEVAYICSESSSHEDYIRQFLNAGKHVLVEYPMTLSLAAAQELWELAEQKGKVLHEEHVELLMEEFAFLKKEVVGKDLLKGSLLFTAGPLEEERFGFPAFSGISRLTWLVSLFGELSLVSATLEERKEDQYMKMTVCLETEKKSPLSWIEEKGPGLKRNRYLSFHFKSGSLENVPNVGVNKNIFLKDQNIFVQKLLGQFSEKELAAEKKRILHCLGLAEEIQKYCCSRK

Target | thermal stability z-score [1, 3] | thermal stability z-score ([1]; arsenate co-treatment: none) | thermal stability z-score [2]
VPS11 (UniProt Q9H270) | -0.214 | -0.578 | 0.734
PIGT (UniProt Q969N2) | -3.54 | -2.49 | -0.105
RAB13 (UniProt P51153) | -0.898 | -0.475 | 0.695
SNTB1 (UniProt Q13884) | -0.307 | 1.19 | 1.29
PPP1CB (UniProt P62140) | 0.928 | -0.00317 | 0.32
SLC1A5 (UniProt Q15758) | 0.752 | 0.31 | 0.00339
IMPDH2 (UniProt P12268) | -0.759 | -0.205 | 1.25
BLVRA (UniProt P53004) | 0.283 | -0.236 | -0.0313
ZW10 (UniProt O43264) | -0.0261 | -0.137 | 0.692
SLC30A5 (UniProt Q8TAD4) | -0.202 | -0.453 | -0.849
GMEB2 (UniProt Q9UKD1) | 0.0462 | -0.00217 | 0.453
PDCD4 (UniProt Q53EL6) | -0.493 | -0.0889 | -0.0393
CMBL (UniProt Q96DG6) | 0.865 | 0.482 | -0.162
HECTD3 (UniProt Q5T447) | -0.331 | -0.0311 | 0.272
PSMC1 (UniProt P62191) | -0.269 | -0.208 | -0.724
RHOC (UniProt P08134) | 0.307 | 0.963 | 0.995
SKP1 (UniProt P63208) | 0.337 | 0.557 | -0.000141
XRCC4 (UniProt Q13426) | 2.01 | 1.89 | 1.24
ACAD8 (UniProt Q9UKU7) | 0.0722 | -0.0632 | -0.989
OBSL1 (UniProt O75147) | -0.175 | -0.0603 | -0.307
LARP4B (UniProt Q92615) | 0.048 | 0.174 | -0.111
ARHGAP27 (UniProt Q6ZUM4) | -0.103 | -0.156 | -0.309
NLN (UniProt Q9BYT8) | -0.0488 | 0.000162 | -0.079
PARK7 (UniProt Q99497) | 4.83 | 0.686 | 4.42

Target | thermal stability z-score [1, 3] | thermal stability z-score ([1]; arsenate co-treatment: none) | thermal stability z-score [2]
DIS3L2 (UniProt Q8IYB7) | -0.225 | 0.566 | 0.155
LRBA (UniProt P50851) | 0.015 | 0.0915 | 0.326
KTN1 (UniProt Q86UP2) | 0.265 | 0.505 | 0.294
CWC27 (UniProt Q6UX04) | 0.0242 | -0.348 | -0.344
INPP5B (UniProt P32019) | -0.146 | -0.514 | -0.211
AMZ2 (UniProt Q86W34) | 0.33 | -0.032 | 0.211
VANGL1 (UniProt Q8TAA9) | 0.696 | 0.817 | -0.242
PDLIM7 (UniProt Q9NR12) | -0.856 | -0.95 | -1.12
MTERF4 (UniProt Q7Z6M4) | -0.0828 | 0.0195 | -0.0404
TRUB2 (UniProt O95900) | 0.00158 | 0.0663 | -0.133
TMEM259 (UniProt Q4ZIN3) | -0.193 | -0.832 | 0.701
OGDH (UniProt Q02218) | 0.182 | 0.151 | -0.531
COPS7B (UniProt Q9H9Q2) | -0.144 | -0.241 | -0.241
SF3A1 (UniProt Q15459) | -0.152 | 0.106 | -1.3
APOB (UniProt P04114) | -0.228 | 0.0547 | -0.328
NNMT (UniProt P40261) | 1.79 | 1.62 | 0.0978
WLS (UniProt Q5T9L3) | -2.04 | -1.12 | 0.0899
GLRX5 (UniProt Q86SX6) | 1.13 | -0.225 | -0.462
VAMP4 (UniProt O75379) | 1.45 | 1.92 | 0.236
CASC4 (UniProt Q6P4E1) | 0.245 | 0.111 | 0.0247
POGK (UniProt Q9P215) | 0.0568 | 0.107 | 0.0895
PISD (UniProt Q9UG56) | 0.488 | 0.414 | 0.0415
LGMN (UniProt Q99538) | -0.232 | -0.461 | -0.193
PAPOLA (UniProt P51003) | -0.22 | -0.103 | -0.119

Target | thermal stability z-score [1, 3] | thermal stability z-score ([1]; arsenate co-treatment: none) | thermal stability z-score [2]
PSMD12 (UniProt O00232) | -0.0164 | 0.0811 | -0.133
SEZ6L2 (UniProt Q6UXD5) | 0.143 | 2.4 | 3.82
HMGN3 (UniProt Q15651) | 1.36 | 0.402 | 0.493
STX5 (UniProt Q13190) | 0.00395 | -0.95 | 0.0014
CDC73 (UniProt Q6P1J9) | 0.521 | 0.541 | 0.234
RPS8 (UniProt P62241) | 0.378 | 0.0867 | -0.848
ECHDC1 (UniProt Q9NTX5) | 0.928 | 0.478 | 0.479
CD2BP2 (UniProt O95400) | 0.994 | 0.894 | 0.94
ZBTB33 (UniProt Q86T24) | -0.0938 | -0.0683 | -0.107
FUT8 (UniProt Q9BYC5) | -0.561 | -0.0456 | 0.521
IGF2BP3 (UniProt O00425) | -0.521 | -0.325 | -0.579
MTMR6 (UniProt Q9Y217) | 0.0538 | 0.0997 | -0.39
ARHGAP5 (UniProt Q13017) | 0.182 | -0.703 | -0.265
PDDC1 (UniProt Q8NB37) | 0.604 | -0.174 | -2.18
RAVER1 (UniProt Q8IY67) | -0.141 | -0.0728 | -0.162
TPM1 (UniProt P09493) | 0.347 | 0.422 | -0.151
CLTA (UniProt P09496) | 1.35 | 1.54 | 0.655
MKL2 (UniProt Q9ULH7) | -0.208 | -0.342 | 0.418
LRCH1 (UniProt Q9Y2L9) | 0.0183 | 0.0529 | 0.494
CYB5R3 (UniProt P00387) | 1.07 | -0.079 | -0.832
NT5DC3 (UniProt Q86UY8) | 0.036 | -0.0265 | -0.179
RAB3GAP2 (UniProt Q9H2M9) | -0.717 | -0.266 | 0.64
LLGL2 (UniProt Q6P1M3) | -0.179 | -0.122 | -0.318
